Assay results published in patent publication US7074789B2, “Kinase inhibitors” (Amgen Inc., priority 1999, dated 2006).

Tests used:
Assay type in all cases: biochemical
IGFR-1 = molecular target: T1, IGFR-1 (Homo sapiens, UniProt P08069); test: Kinase inhibition assay (33P transfer), IGFR-1; conditions: Table 2, kinase inhibition class
T1 construct: Kinases are expressed as either kinase domains or full length constructs; made in house

EPHB4 = molecular target: T2, EPHB4 (Homo sapiens, UniProt P54760); test: Kinase inhibition assay (33P transfer), EPHB4; conditions: read-out: EPHB4-1
T2 construct: Kinases are expressed as either kinase domains or full length constructs; made in house
T2 sequence (P54760 16-987): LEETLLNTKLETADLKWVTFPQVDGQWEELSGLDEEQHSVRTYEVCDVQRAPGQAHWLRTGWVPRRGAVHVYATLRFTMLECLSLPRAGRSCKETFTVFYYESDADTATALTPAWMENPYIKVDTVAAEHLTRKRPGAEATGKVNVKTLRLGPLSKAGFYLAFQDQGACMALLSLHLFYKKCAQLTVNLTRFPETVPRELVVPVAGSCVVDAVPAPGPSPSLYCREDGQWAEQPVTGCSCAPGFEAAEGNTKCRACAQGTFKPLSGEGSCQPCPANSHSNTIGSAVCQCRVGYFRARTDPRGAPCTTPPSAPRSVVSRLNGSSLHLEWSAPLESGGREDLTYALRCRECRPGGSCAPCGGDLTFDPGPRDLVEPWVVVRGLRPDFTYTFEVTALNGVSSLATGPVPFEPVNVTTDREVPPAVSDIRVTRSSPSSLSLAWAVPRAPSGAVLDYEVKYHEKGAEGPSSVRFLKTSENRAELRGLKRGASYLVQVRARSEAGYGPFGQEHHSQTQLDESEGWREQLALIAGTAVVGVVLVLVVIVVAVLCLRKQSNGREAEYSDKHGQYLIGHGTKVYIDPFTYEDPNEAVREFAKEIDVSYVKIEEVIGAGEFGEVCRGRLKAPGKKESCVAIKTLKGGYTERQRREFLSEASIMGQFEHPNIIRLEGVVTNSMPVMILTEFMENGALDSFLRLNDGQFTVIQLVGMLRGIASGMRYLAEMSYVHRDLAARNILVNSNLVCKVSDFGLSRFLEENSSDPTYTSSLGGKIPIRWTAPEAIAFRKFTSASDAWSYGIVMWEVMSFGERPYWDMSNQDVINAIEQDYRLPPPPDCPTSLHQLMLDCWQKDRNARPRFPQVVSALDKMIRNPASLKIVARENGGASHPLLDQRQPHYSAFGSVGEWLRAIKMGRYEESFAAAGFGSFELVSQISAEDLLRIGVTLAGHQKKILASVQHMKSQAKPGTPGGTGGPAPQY

Zap-70 = molecular target: T3, Zap-70 (Homo sapiens, UniProt P43403); test: Kinase inhibition assay (33P transfer), Zap-70; conditions: Table 3; read-out: Zap-1
T3 construct: Kinases are expressed as either kinase domains or full length constructs; made in house
T3 sequence (P43403 1-619): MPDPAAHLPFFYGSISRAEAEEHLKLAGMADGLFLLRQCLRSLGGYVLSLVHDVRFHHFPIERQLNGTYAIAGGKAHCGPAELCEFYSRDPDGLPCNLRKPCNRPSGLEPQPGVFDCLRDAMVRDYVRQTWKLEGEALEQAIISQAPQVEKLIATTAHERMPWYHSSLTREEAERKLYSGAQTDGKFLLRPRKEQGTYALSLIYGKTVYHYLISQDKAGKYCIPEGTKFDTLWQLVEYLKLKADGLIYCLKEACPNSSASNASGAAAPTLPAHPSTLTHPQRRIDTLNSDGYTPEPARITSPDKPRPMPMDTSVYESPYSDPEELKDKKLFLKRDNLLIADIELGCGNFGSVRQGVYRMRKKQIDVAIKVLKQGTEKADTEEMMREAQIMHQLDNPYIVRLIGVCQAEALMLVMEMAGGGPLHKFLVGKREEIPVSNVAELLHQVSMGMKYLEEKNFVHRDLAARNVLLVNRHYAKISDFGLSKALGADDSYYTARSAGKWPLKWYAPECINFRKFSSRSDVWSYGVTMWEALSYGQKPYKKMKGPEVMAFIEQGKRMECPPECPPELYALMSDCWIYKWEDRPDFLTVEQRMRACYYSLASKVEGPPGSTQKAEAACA
Summary of the method: (§1)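 GST/His-tagged kinase (domain or full length; E. coli or baculovirus) + [33P]ATP on plates coated with poly(Glu,Tyr) 4:1 or poly(Arg,Ser) 3:1; incubate, wash 0.5% H3PO4, add scintillant, count.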

c-Met = molecular target: T4, c-Met (Homo sapiens, UniProt P08581); test: Kinase inhibition assay (33P transfer), c-Met; conditions: Table 2, kinase inhibition class; read-out: Met-1
T4 construct: Kinases are expressed as either kinase domains or full length constructs; made in house
Summary of the method: (§2)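 IC50: inhibitor concentration lowering 33P incorporation into immobilised substrate by 50%. Label transferred from ATP to poly(Glu,Tyr) 4:1 or poly(Arg,Ser) 3:1 is measured after a 0.5% phosphoric acid wash by liquid scintillation.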

EGFR = molecular target: T5, EGFR (Homo sapiens, UniProt P00533); test: Kinase inhibition assay (33P transfer), EGFR; conditions: Table 2, kinase inhibition class; read-out: EGFR-1
T5 construct: Kinases are expressed as either kinase domains or full length constructs; made in house
Summary of the method: as §2

Kdr = molecular target: T6, Kdr (Homo sapiens, UniProt P35968); test: Kinase inhibition assay (33P transfer), Kdr; conditions: Table 3; read-out: KDR-1
T6 construct: Kinases are expressed as either kinase domains or full length constructs; made in house
Summary of the method: as §1

AKT = molecular target: T7, AKT (Homo sapiens, UniProt Q9Y243); test: Kinase inhibition assay (33P transfer), AKT; conditions: Table 2, kinase inhibition class; read-out: AKT3-1
T7 construct: Kinases are expressed as either kinase domains or full length constructs; made in house
Summary of the method: as §1

Lck = molecular target: T8, Lck (Homo sapiens, UniProt P06239); test: Kinase inhibition assay (33P transfer), Lck; conditions: Table 3; read-out: Lck-1
T8 construct: Kinases are expressed as either kinase domains or full length constructs; made in house
Summary of the method: as §1

Itk = molecular target: T9, Itk (Homo sapiens, UniProt Q08881); test: Kinase inhibition assay (33P transfer), Itk; conditions: Table 3; read-out: Itk-1
T9 construct: Kinases are expressed as either kinase domains or full length constructs; made in house
T9 sequence (Q08881 1-620): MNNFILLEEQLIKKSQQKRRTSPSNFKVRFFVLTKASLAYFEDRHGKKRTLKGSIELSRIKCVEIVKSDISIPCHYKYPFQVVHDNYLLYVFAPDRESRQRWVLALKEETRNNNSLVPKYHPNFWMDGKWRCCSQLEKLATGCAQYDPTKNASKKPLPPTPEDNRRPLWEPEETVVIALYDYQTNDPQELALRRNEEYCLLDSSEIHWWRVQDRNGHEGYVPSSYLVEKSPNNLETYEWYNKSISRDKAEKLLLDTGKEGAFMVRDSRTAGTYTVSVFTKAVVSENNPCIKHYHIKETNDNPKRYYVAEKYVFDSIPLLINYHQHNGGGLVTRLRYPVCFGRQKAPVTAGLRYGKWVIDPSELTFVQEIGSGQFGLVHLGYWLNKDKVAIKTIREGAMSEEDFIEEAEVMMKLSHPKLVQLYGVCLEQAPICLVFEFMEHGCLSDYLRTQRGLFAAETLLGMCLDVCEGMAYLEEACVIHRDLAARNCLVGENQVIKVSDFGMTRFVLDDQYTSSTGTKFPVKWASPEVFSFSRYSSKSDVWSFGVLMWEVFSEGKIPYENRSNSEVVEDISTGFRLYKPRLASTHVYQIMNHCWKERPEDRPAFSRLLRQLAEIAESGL
Summary of the method: as §2

T6 sequence (P35968 20-1356, species assumed): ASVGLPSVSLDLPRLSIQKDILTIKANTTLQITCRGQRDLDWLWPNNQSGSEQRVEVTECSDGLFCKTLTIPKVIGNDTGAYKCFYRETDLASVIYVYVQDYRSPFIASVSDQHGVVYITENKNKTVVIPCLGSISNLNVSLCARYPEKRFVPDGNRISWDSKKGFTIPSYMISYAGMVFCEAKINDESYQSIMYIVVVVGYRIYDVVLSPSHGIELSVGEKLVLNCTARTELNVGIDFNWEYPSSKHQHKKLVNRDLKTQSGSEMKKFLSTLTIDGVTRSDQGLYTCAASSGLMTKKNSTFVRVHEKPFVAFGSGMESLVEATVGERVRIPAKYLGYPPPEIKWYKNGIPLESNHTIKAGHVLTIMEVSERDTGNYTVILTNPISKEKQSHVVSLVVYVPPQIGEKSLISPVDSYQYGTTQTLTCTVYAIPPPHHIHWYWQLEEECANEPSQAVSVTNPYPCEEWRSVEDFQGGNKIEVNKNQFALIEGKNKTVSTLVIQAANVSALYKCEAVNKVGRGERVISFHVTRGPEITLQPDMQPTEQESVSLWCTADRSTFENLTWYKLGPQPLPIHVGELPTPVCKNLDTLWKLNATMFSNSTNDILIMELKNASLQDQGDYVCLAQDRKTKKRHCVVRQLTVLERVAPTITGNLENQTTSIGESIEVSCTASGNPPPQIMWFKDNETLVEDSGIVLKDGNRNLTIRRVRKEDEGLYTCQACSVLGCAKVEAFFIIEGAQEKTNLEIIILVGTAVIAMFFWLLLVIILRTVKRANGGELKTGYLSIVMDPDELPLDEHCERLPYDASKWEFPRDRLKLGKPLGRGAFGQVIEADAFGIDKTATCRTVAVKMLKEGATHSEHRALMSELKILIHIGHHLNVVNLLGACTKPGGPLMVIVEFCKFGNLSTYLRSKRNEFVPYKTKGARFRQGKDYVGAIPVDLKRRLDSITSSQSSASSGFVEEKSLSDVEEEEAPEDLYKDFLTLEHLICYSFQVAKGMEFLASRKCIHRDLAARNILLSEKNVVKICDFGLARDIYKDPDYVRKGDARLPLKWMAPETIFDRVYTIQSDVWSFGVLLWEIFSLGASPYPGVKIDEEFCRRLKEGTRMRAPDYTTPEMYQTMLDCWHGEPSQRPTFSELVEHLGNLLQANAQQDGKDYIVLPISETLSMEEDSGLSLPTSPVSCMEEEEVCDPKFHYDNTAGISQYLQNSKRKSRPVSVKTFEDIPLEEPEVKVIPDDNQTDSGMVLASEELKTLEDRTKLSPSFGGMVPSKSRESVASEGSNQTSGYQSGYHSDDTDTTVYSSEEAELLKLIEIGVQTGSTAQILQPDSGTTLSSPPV
T5 sequence (P00533 25-1210, species assumed): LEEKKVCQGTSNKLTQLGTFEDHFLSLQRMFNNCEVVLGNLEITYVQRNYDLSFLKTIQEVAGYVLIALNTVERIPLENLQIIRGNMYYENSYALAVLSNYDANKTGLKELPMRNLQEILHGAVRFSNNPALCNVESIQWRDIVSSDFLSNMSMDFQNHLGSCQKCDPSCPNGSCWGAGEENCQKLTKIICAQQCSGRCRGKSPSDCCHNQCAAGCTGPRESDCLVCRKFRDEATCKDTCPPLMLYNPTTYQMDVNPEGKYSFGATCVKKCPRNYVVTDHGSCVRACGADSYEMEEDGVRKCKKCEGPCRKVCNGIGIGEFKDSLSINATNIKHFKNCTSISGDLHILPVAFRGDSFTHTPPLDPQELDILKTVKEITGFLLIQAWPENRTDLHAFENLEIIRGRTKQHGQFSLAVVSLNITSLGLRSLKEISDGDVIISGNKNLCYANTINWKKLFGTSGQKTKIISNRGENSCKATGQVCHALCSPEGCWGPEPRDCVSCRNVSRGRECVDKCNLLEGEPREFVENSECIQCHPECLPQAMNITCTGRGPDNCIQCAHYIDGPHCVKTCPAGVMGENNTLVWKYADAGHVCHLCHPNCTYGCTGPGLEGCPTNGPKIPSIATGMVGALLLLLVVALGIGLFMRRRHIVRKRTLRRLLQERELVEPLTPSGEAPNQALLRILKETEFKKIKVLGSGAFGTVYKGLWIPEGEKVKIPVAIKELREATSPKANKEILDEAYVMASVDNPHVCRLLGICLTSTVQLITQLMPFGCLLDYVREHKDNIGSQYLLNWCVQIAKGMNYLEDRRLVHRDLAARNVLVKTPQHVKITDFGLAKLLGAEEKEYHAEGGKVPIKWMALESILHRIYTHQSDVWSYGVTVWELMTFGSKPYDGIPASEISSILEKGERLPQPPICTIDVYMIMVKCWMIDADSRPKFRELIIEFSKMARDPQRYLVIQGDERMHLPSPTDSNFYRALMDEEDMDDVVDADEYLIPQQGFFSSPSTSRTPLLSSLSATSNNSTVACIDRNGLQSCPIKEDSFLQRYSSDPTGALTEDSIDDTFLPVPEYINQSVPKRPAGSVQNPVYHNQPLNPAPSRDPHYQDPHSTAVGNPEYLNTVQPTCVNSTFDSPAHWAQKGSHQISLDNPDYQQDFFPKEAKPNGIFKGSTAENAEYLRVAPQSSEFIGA
T8 sequence (P06239 whole entry, species assumed, the tested form may be a part): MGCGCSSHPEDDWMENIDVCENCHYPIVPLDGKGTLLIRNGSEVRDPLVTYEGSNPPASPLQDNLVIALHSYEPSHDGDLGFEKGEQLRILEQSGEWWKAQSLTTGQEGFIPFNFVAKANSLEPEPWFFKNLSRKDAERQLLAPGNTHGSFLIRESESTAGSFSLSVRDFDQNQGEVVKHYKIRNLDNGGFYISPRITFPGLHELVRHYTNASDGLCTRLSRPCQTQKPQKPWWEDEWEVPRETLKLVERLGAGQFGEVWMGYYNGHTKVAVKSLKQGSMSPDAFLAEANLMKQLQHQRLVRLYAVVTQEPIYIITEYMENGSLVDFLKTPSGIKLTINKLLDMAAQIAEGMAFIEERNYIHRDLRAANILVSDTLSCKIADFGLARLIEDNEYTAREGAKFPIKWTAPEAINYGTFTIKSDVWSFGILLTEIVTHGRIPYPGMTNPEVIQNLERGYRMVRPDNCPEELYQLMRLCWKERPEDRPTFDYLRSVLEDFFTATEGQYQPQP
T4 sequence (P08581 25-1390): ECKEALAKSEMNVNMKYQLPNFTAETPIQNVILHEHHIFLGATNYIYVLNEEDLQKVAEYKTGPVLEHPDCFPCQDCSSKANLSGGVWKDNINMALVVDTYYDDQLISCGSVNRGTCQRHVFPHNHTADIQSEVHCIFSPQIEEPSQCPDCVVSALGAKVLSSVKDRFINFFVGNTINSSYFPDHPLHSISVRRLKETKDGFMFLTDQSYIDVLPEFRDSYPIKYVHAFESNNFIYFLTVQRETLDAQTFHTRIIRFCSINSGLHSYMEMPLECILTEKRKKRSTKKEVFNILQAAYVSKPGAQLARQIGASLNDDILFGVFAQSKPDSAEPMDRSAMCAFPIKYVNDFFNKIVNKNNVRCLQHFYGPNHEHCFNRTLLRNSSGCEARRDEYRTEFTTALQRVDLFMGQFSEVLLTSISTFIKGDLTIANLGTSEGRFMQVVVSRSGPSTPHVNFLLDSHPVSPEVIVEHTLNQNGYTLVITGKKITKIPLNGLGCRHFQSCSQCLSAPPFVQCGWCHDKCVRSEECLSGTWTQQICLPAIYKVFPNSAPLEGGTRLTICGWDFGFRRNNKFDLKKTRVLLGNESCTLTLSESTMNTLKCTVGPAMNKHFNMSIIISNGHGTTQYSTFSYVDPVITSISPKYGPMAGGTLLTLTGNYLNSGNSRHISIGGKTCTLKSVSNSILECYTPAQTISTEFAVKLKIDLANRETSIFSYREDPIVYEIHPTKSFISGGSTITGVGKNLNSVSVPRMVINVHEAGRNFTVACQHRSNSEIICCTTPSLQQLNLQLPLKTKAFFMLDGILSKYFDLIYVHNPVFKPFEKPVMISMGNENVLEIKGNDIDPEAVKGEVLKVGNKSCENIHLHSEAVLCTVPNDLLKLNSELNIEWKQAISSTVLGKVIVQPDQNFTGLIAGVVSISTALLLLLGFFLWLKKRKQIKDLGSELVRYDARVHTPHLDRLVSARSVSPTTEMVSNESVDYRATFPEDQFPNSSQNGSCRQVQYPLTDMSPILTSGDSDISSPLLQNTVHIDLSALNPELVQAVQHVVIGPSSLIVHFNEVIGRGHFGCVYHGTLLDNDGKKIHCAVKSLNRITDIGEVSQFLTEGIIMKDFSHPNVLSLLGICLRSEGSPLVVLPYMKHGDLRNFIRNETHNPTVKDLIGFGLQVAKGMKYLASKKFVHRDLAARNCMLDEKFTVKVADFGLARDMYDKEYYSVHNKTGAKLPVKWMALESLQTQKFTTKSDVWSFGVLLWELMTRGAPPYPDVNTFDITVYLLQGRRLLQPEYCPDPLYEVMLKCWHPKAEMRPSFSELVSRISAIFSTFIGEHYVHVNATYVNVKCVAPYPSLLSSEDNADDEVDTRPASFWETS
T7 sequence (Q9Y243 whole entry, the tested form may be a part): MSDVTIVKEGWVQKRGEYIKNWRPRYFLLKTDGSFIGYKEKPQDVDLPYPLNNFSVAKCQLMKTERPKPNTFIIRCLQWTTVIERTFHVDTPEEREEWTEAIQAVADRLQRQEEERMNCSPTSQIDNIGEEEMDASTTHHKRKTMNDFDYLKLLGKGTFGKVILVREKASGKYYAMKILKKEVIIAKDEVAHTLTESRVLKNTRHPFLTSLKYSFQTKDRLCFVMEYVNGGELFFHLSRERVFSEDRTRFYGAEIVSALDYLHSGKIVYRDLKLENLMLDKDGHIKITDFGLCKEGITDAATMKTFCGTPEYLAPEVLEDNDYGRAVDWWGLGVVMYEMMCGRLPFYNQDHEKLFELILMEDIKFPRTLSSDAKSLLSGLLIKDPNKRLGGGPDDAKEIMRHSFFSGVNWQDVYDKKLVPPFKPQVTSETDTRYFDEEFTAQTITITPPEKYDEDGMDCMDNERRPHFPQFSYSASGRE

Structure (SMILES)	IC50 (IGFR-1) [µM]	IC50 (EPHB4) [µM]	IC50 (Zap-70) [µM]	IC50 (c-Met) [µM]	IC50 (EGFR) [µM]	IC50 (Kdr) [µM]	IC50 (AKT) [µM]	IC50 (Lck) [µM]	IC50 (Itk) [µM]
FC(F)C(F)(F)Oc1cccc(Nc2ncnc(-c3ccnc(Cl)c3)n2)c1 [Compound 330]	8.76 to 11.3	6 to 8.76	> 11.3	> 11.3	> 11.3	> 11.3	> 11.3	> 11.3	> 11.3
COc1cc(Nc2ncnc(-n3cc(C#N)c4ccccc43)n2)cc(OC)c1OC [Compound 332]	5.96 to 8.7	0.994 to 5.96	> 11.2	5.96 to 8.7	> 11.2	0.994 to 5.96	> 11.2	8.7 to 11.2	> 11.2
COc1cc(C)c(Nc2ncnc(Nc3cc(-c4ccco4)n[nH]3)n2)cc1OC [Compound 338]	< 1.02	6.1 to 8.9	> 11.4	1.02 to 6.1	1.02 to 6.1	1.02 to 6.1	> 11.4	1.02 to 6.1	> 11.4
